Experimental findings from ChEMBL document CHEMBL4196184, “Colocynthenins A-D, Ring-A seco-Cucurbitane Triterpenoids from the Fruits of Citrullus colocynthis” (J Nat Prod, 2018) are described below.

Molecules are shown by their SMILES. Calls of active or inactive are those of the source. The rule behind the calls is not given here.

The target in one experiment is T1, Acetylcholinesterase (Homo sapiens, UniProt P22303). Kind of experiment: Inhibition of AChE (unknown origin) using acetylthiocholine iodide as substrate preincubated for 10 mins followed by substrate addition measured after 10 mins by Ellman's method. A general note: DTNB colorimetry detects thiols as they appear.
T1 sequence (P22303 whole entry): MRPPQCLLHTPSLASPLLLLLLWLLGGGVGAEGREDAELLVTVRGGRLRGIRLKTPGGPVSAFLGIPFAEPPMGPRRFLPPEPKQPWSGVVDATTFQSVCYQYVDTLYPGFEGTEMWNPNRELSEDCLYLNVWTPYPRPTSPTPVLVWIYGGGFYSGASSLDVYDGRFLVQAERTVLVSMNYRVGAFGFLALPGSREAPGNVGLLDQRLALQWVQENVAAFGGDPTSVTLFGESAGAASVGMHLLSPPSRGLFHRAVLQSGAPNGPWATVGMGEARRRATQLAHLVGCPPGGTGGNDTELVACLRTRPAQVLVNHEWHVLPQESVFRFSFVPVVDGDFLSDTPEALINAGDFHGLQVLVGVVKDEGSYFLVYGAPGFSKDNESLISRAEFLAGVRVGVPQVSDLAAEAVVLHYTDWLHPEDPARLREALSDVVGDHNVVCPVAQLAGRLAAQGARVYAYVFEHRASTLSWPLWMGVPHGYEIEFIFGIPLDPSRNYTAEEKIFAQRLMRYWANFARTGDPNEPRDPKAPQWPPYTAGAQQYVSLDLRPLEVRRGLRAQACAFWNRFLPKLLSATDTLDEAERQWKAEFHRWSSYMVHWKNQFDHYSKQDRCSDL
`CC(=O)OC(C)(C)/C=C/C(=O)[C@](C)(O)[C@H]1[C@H](O)C[C@@]2(C)[C@@H]3CC=C(C(C)(C)C(=O)O)C4=CC(=O)O[C@](O)(C[C@]12C)[C@@]43C` registered an IC50 of 2.6 µM.

In the case of `CC(=O)OC(C)(C)/C=C/C(=O)[C@](C)(O)[C@H]1[C@H](O)C[C@@]2(C)[C@@H]3CC=C(C(C)(C)C(=O)O)/C(=C\C(=O)O)[C@]3(C)C(=O)C[C@]12C`, the IC50 was 3.1 µM.

The target in another experiment is T1, Acetylcholinesterase. Kind of experiment: Inhibition of AChE (unknown origin) at 10 uM using acetylthiocholine iodide as substrate preincubated for 10 mins followed by substrate addition measured after 10 mins by Ellman's method.
Take `CC(=O)OC(C)(C)/C=C/C(=O)[C@](C)(O)[C@H]1[C@H](O)C[C@@]2(C)[C@@H]3[C@@H](O)C=C4[C@@H](C=C(O[C@@H]5O[C@H](CO)[C@@H](O)[C@H](O)[C@H]5O)C(=O)C4(C)C)[C@]3(C)C(=O)C[C@]12C`: the inhibition result was “inactive”.

Turning to `COC(=O)C(C)(C)C1=CC[C@@H]2[C@@](C)(C(=O)C[C@]3(C)[C@@H]([C@@](C)(O)C(=O)/C=C/C(C)(C)OC(C)=O)[C@H](O)C[C@@]23C)/C1=C/C(=O)O`, the inhibition result is “inactive”.

Consider `CC(=O)OC[C@H]1O[C@@H](OC2=C[C@@H]3C(=CC[C@@H]4[C@@]3(C)C(=O)C[C@]3(C)[C@@H]([C@@](C)(O)C(=O)/C=C/C(C)(C)OC(C)=O)[C@H](O)C[C@@]43C)C(C)(C)C2=O)[C@H](O)[C@@H](O)[C@@H]1O`, for which the inhibition entry is “inactive”.

On to `CC(=O)OC(C)(C)/C=C/C(=O)[C@](C)(O)[C@H]1[C@H](O)C[C@@]2(C)[C@@H]3CC=C(C(C)(C)C(=O)O)/C(=C\C#N)[C@]3(C)C(=O)C[C@]12C`, for which the inhibition entry was “inactive”.

Take `CC(=O)OC(C)(C)/C=C/C(=O)[C@](C)(O)[C@H]1[C@H](O)C[C@@]2(C)[C@@H]3CC=C4[C@@H](C=C(O)C(=O)C4(C)C)[C@]3(C)C(=O)C[C@]12C`: the inhibition entry was “inactive”.

Take `CC(=O)OC(C)(C)CCC(=O)[C@](C)(O)[C@H]1[C@H](O)C[C@@]2(C)[C@@H]3CC=C4[C@@H](C[C@H](O[C@@H]5O[C@H](CO)[C@@H](O)[C@H](O)[C@H]5O)C(=O)C4(C)C)[C@]3(C)C(=O)C[C@]12C`: the inhibition result is “inactive”.

As for `CC(=O)OC(C)(C)CCC(=O)[C@](C)(O)[C@H]1[C@H](O)C[C@@]2(C)[C@@H]3CC=C4[C@@H](C[C@H](O)C(=O)C4(C)C)[C@]3(C)C(=O)C[C@]12C`, the inhibition result is “inactive”.

As for `CC(=O)OC(C)(C)/C=C/C(=O)[C@](C)(O)[C@H]1[C@H](O)C[C@@]2(C)[C@@H]3CC=C4[C@@H](C[C@H](O)C(=O)C4(C)C)[C@]3(C)C(=O)C[C@]12C`, the inhibition result was “inactive”.

As for `CC(=O)OC(C)(C)/C=C/C(=O)[C@](C)(O)[C@H]1[C@H](O)C[C@@]2(C)[C@@H]3CC=C4[C@@H](C[C@H](O[C@@H]5O[C@H](CO)[C@@H](O)[C@H](O)[C@H]5O)C(=O)C4(C)C)[C@]3(C)C(=O)C[C@]12C`, the inhibition result is “inactive”.

By IC50 is commonly meant the point on the concentration scale where inhibition reaches its midpoint.
